Data as given in PubChem BioAssay (NCI).
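Dose response: 5 concentrations. Exposure: 48 h. Format: 96-well plates. Endpoint: linear interpolation; highest concentration if not reached. GI50 marks 50% less growth. TGI: total growth inhibition.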

How the values were obtained:
Assay in all cases: NCI tumour cell line growth inhibition, 48 h
[1] = system: HOP-92 NSCLC
[2] = system: SK-OV-3 ovarian
[3] = system: MDA-MB-231 breast
[4] = system: MOLT-4 leukemia
[5] = system: OVCAR-3 ovarian
[6] = system: SF-268 CNS
[7] = system: RXF 393 renal
[8] = system: EKVX NSCLC
[9] = system: BT-549 breast
[10] = system: 786-0 renal
[11] = system: CCRF-CEM leukemia
[12] = system: OVCAR-5 ovarian
[13] = system: OVCAR-4 ovarian
[14] = system: NCI/ADR-RES ovarian
[15] = system: HL-60(TB) leukemia
[16] = system: SNB-19 CNS
[17] = system: A498 renal
[18] = system: MALME-3M melanoma
[19] = system: M14 melanoma
[20] = system: U251 CNS
[21] = system: OVCAR-8 ovarian
[22] = system: HCT-15 colon
[23] = system: DU-145 prostate
[24] = system: HT29 colon
[25] = system: RPMI-8226 leukemia
[26] = system: UACC-62 melanoma
[27] = system: SNB-75 CNS
[28] = system: A549 NSCLC
[29] = system: MDA-MB-468 breast
[30] = system: UO-31 renal
[31] = system: HCC-2998 colon
[32] = system: KM12 colon
[33] = system: MDA-MB-435
[34] = system: SF-539 CNS
[35] = system: NCI-H23 lung
[36] = system: NCI-H226 lung
[37] = system: TK-10 renal
[38] = system: PC-3 prostate
[39] = system: HOP-62 NSCLC
[40] = system: LOX IMVI melanoma
[41] = system: SN12C renal
[42] = system: SK-MEL-2 melanoma
[43] = system: UACC-257 melanoma
[44] = system: HS 578T breast
[45] = system: SR leukemia
[46] = system: NCI-H460 lung
[47] = system: SK-MEL-28 melanoma
[48] = system: HCT-116 colon
[49] = system: SF-295 CNS
[50] = system: MCF7 breast
[51] = system: IGROV1 ovarian
[52] = system: ACHN renal
[53] = system: CAKI-1 renal
[54] = system: NCI-H522 lung
[55] = system: T-47D breast
[56] = system: SK-MEL-5 melanoma
[57] = system: K-562 leukemia
[58] = system: COLO 205 colon
[59] = system: SW-620 colon

CCOc1ccc2ncc(C#Cc3cncc(C(=O)Nc4ccc(CN5CCN(C)CC5)c(C(F)(F)F)c4)c3)n2n1
GI50 [1]: 206 nM | TGI [1]: 1.34 µM | GI50 [2]: 4.64 µM | TGI [2]: 19.7 µM | GI50 [3]: 362 nM | TGI [3]: 2.87 µM | GI50 [4]: 0.316 µM | TGI [4]: 3.35 µM | GI50 [5]: 4.5 µM | TGI [5]: 24.6 µM | GI50 [6]: 1920 nM | TGI [6]: 17.6 µM | GI50 [7]: 0.89 µM | TGI [7]: 2.34 µM | GI50 [8]: 0.704 µM | TGI [8]: 17.8 µM | GI50 [9]: 1.79 µM | TGI [9]: 12.4 µM | GI50 [10]: 1.56 µM | TGI [10]: 2.95 µM | GI50 [11]: 64.2 nM | TGI [11]: > 21.2 µM | GI50 [12]: 0.802 µM | TGI [12]: 12 µM | GI50 [13]: 3.56 µM | TGI [13]: 28.7 µM | GI50 [14]: 1160 nM | TGI [14]: 2660 nM | GI50 [15]: 0.521 µM | TGI [15]: 16.3 µM | GI50 [16]: 6.37 µM | TGI [16]: 21.7 µM | GI50 [17]: 6.96 µM | TGI [17]: 24.3 µM | GI50 [18]: 353 nM | TGI [18]: 1710 nM | GI50 [19]: 416 nM | TGI [19]: 1.79 µM | GI50 [20]: 11.7 µM | TGI [20]: 30.9 µM | GI50 [21]: 3.21 µM | TGI [21]: 10.6 µM | GI50 [22]: 357 nM | TGI [22]: 1660 nM | GI50 [23]: 1100 nM | TGI [23]: 17.3 µM | GI50 [24]: 475 nM | TGI [24]: 2.39 µM | GI50 [25]: 1.06 µM | TGI [25]: 4.38 µM | GI50 [26]: 9.92 µM | TGI [26]: 24.5 µM | GI50 [27]: 3.31 µM | TGI [27]: 16.3 µM | GI50 [28]: 1.16 µM | TGI [28]: 22.7 µM | GI50 [29]: 1660 nM | TGI [29]: 11.1 µM | GI50 [30]: 2200 nM | TGI [30]: 13.7 µM | GI50 [31]: 2.34 µM | TGI [31]: 20.1 µM | TGI [32]: 10.5 µM | GI50 [33]: 592 nM | TGI [33]: 5.15 µM | GI50 [34]: 143 nM | TGI [34]: 0.755 µM | GI50 [35]: 393 nM | TGI [35]: 4.9 µM | GI50 [36]: 151 nM | TGI [36]: 1.85 µM | GI50 [37]: 8.09 µM | TGI [37]: 23.3 µM | GI50 [38]: 1520 nM | TGI [38]: 19.2 µM | GI50 [39]: 1250 nM | TGI [39]: 14.4 µM | GI50 [40]: 608 nM | TGI [40]: 1940 nM | GI50 [41]: 643 nM | TGI [41]: 11.7 µM | GI50 [42]: 1340 nM | TGI [42]: 11.9 µM | GI50 [43]: 2.16 µM | TGI [43]: 11.4 µM | GI50 [44]: 283 nM | TGI [44]: 3.11 µM | GI50 [45]: 723 nM | TGI [45]: 9.4 µM | GI50 [46]: 534 nM | TGI [46]: 16.9 µM | GI50 [47]: 1300 nM | TGI [47]: 2.66 µM | GI50 [48]: 225 nM | TGI [48]: 1.56 µM | GI50 [49]: 0.918 µM | TGI [49]: 19 µM | GI50 [50]: 208 nM | TGI [50]: 1.74 µM | GI50 [51]: 2.18 µM | TGI [51]: 19.1 µM | GI50 [52]: 0.561 µM | TGI [52]: 15 µM | GI50 [53]: 0.79 µM | TGI [53]: 13.2 µM | GI50 [54]: 1400 nM | TGI [54]: 21.9 µM | GI50 [55]: 17.8 µM | TGI [55]: > 70.5 µM | GI50 [56]: 1.89 µM | TGI [56]: 7.25 µM | TGI [57]: 1360 nM | GI50 [58]: 272 nM | TGI [58]: 0.883 µM | GI50 [59]: 287 nM | TGI [59]: 2.3 µM

COc1ccc2[nH]c(O)c(N=NC(=O)COc3ccc(NC(=O)Nc4ccc(Cl)cc4)cc3)c2c1
GI50 [1]: 2430 nM | TGI [1]: 7.31 µM | GI50 [2]: 12.7 µM | TGI [2]: 27.6 µM | GI50 [3]: 1800 nM | TGI [3]: 3.75 µM | GI50 [4]: 9.72 µM | TGI [4]: 51.2 µM | GI50 [5]: 2.21 µM | TGI [5]: 6.34 µM | GI50 [6]: 3300 nM | TGI [6]: 10.4 µM | GI50 [7]: 6.26 µM | TGI [7]: 22.2 µM | GI50 [8]: 18.7 µM | TGI [8]: > 100 µM | GI50 [9]: 12.1 µM | TGI [9]: 26.6 µM | GI50 [10]: 7.32 µM | TGI [10]: 24.9 µM | GI50 [11]: 5390 nM | TGI [11]: 26.3 µM | GI50 [12]: 6.34 µM | TGI [12]: 20 µM | GI50 [13]: 2.94 µM | TGI [13]: 11 µM | GI50 [14]: > 100000 nM | TGI [14]: > 100000 nM | GI50 [15]: 23.6 µM | TGI [15]: > 100 µM | GI50 [16]: 3 µM | TGI [16]: 10.9 µM | GI50 [17]: 17.1 µM | TGI [17]: 31.8 µM | GI50 [18]: 1770 nM | TGI [18]: 3610 nM | GI50 [19]: 2610 nM | TGI [19]: 7.88 µM | GI50 [20]: 4.16 µM | TGI [20]: 14.5 µM | GI50 [21]: 10.5 µM | TGI [21]: 37.9 µM | GI50 [22]: > 100000 nM | TGI [22]: > 100000 nM | GI50 [23]: 4140 nM | TGI [23]: 20.7 µM | GI50 [24]: 3220 nM | TGI [24]: 14 µM | GI50 [25]: 6.58 µM | TGI [25]: 68.8 µM | GI50 [26]: 2.23 µM | TGI [26]: 5.8 µM | GI50 [27]: 8.94 µM | TGI [27]: 27.7 µM | GI50 [28]: 8.39 µM | TGI [28]: 44.4 µM | GI50 [29]: 1850 nM | TGI [29]: 4.61 µM | GI50 [30]: > 100000 nM | TGI [30]: > 100 µM | GI50 [31]: 5.33 µM | TGI [31]: 25.9 µM | GI50 [32]: 3.21 µM | TGI [32]: 13.4 µM | GI50 [33]: 1750 nM | TGI [33]: 4.77 µM | GI50 [34]: 2420 nM | TGI [34]: 6.86 µM | GI50 [35]: 2680 nM | TGI [35]: 8.54 µM | GI50 [36]: 3740 nM | TGI [36]: 16.8 µM | GI50 [37]: 20.8 µM | TGI [37]: 48.3 µM | GI50 [38]: 3390 nM | TGI [38]: 14.9 µM | GI50 [39]: 2540 nM | TGI [39]: 6.4 µM | GI50 [40]: 1870 nM | TGI [40]: 3810 nM | GI50 [41]: 3030 nM | TGI [41]: 11.4 µM | GI50 [42]: 2080 nM | TGI [42]: 4.41 µM | GI50 [43]: 13.1 µM | TGI [43]: 28.2 µM | GI50 [44]: 2800 nM | TGI [44]: 13.4 µM | GI50 [45]: 4150 nM | TGI [45]: > 100 µM | GI50 [46]: 1840 nM | TGI [46]: 3.97 µM | GI50 [47]: 1810 nM | TGI [47]: 3.56 µM | GI50 [48]: 2960 nM | TGI [48]: 11.5 µM | GI50 [49]: 6.63 µM | TGI [49]: 20.1 µM | GI50 [50]: 2880 nM | TGI [50]: 10.2 µM | GI50 [51]: 8.74 µM | TGI [51]: 21.6 µM | GI50 [52]: 19.3 µM | TGI [52]: 58.8 µM | GI50 [53]: 16.6 µM | TGI [53]: 33.7 µM | GI50 [54]: 2230 nM | TGI [54]: 5.85 µM | GI50 [55]: 9.57 µM | TGI [55]: 23.9 µM | GI50 [56]: 5.9 µM | TGI [56]: 18.9 µM | GI50 [57]: 5.36 µM | TGI [57]: > 100000 nM | GI50 [58]: 3630 nM | TGI [58]: 13.2 µM | GI50 [59]: 2610 nM | TGI [59]: 13.2 µM
